Test results published in patent US12247022B2, “Combinations for treatment of NASH/NAFLD and related diseases” (Pfizer Inc., priority 2018, dated 2025).
Structures can show the parent of a compound that is named as a salt.

Test: Thermodynamic stability of crystalline form versus water activity
Format: physicochemical
Conditions: ambient temperature; about 0.2 (20% RH)

Row | Structure (SMILES) | water activity at which the form is thermodynamically stable
1 | COc1cc(C(=O)N2CCC3(CC2)CC(=O)c2c(cnn2C(C)C)C3)cc(-c2ccc(C(=O)O)cc2)n1 [Form 1 of Compound A, 4-(4-(1-isopropyl-7-oxo-1,4,6,7-tetrahydrospiro[indazole-5,4′-piperidine]-1′-carbonyl)-6-methoxypyridin-2-yl)benzoic acid anhydrous tris salt] | < 0.2
2 | COc1cc(C(=O)N2CCC3(CC2)CC(=O)c2c(cnn2C(C)C)C3)cc(-c2ccc(C(=O)O)cc2)n1 [Form 2 of Compound A] | > 0.2
